The target in assay [1] is GST-tagged K-Ras mutant / His-tagged hSOS1 (Homo sapiens, UniProt P01116). Briefly: HTRF assay, K-Ras mutant / SOS1 interaction. The assay is classed as binding. The settings on record: compound nos. 401-703; read-out: IC50 against mutant Kras. The essentials: (§1)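 Compounds tested in duplicate from 10 μM down to 0.01 μM, incubated about 10 min or longer with GST-K-Ras/anti-GST-Eu and His-hSOS1/anti-6His-XL665 in ~5 mM HEPES pH 7.4 buffer with ~150 mM NaCl, DTT, BSA and Igepal. IC50 derived from 665/620 nm emission ratio.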
Chain of GST-tagged K-Ras mutant / His-tagged hSOS1 (P01116 whole entry G12D, form open): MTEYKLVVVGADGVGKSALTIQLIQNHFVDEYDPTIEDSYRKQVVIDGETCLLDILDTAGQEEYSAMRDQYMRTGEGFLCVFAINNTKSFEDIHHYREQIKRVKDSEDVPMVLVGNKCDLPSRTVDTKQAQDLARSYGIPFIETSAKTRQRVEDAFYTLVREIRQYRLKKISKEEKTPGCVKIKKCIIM
On the technique in general: Time-resolved FRET reads energy transfer from a long-lived donor to a nearby acceptor.

A further assay concerns the target T1, wildtype Kras / hSOS1 (Homo sapiens, UniProt P01116).
T1 construct: made in house; host or cells: E. coli BL21 (DE3)
The assay can be described thus: HTRF assay, wildtype Kras / SOS1 interaction. It counts as binding. Conditions: compound nos. 401-703; read-out: IC50 against wildtype Kras. The method, boiled down:
as §1

The structures appear in SMILES notation.

T1 sequence (P01116 1-188 isoform P01116-2): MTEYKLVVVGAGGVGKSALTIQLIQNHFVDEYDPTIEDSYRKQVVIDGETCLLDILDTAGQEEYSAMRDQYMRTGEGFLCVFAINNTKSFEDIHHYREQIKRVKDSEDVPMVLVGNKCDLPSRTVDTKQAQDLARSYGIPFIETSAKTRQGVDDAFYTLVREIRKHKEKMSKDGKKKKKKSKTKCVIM

Usually IC50 stands for the midpoint of a concentration-inhibition curve. For `CN1CCC[C@H]1COc1nc(N2CCCC(NS(C)(=O)=O)CC2)c2cc(Cl)c(-c3cccc4sc(N)nc34)c(F)c2n1` (stereo partly drawn) [Compound 439, N-(1-(7-(2-aminobenzo[d]-thiazol-4-yl)-6-chloro-8-fluoro-2-(((S)-1-methyl-pyrrolidin-2-yl)methoxy)-quinazolin-4-yl)azepan-4-yl)methanesulfonamide], the IC50 (in assay [1]; on wildtype Kras / hSOS1) was under 500 nM in each case.
For the compound `Nc1cccc(-c2c(Cl)cc3c(N4CC5CCC(C4)N5)nc(OCC45CCCN4CCC5)nc3c2F)c1F` [Compound 440, 3-(4-(3,8-diazabicyclo-[3.2.1]-octan-3-yl)-6-chloro-8-fluoro-2-((tetrahydro-1H-pyrrolizin-7a(5H)-yl)meth-oxy)quinazolin-7-yl)-2-fluoroaniline], the IC50 is over 500 nM in assay [1] and under 500 nM on wildtype Kras / hSOS1.
For `CN1CCC[C@H]1COc1nc(N2CCCC(N3CC(N)C3)CC2)c2cc(Cl)c(-c3cccc4sc(N)nc34)c(F)c2n1` (stereo partly drawn) [Compound 441, 4-(4-(4-(3-aminoazetidin-1-yl)azepan-1-yl)-6-chloro-8-fluoro-2-(((S)-1-methyl-pyrrolidin-2-yl)methoxy)-quinazolin-7-yl)benzo[d]-thiazol-2-amine], in that order: over 500 nM and under 500 nM.
On to `CN1CCC[C@H]1COc1nc(N2CCCCC(N)C2)c2cc(Cl)c(-c3cccc4sc(N)nc34)c(F)c2n1` (stereo partly drawn) [Compound 442, 4-(4-(3-aminoazepan-1-yl)-6-chloro-8-fluoro-2-(((S)-1-methylpyrrolidin-2-yl)-methoxy)quinazolin-7-yl)-benzo[d]thiazol-2-amine], for which the IC50 (in assay [1]; on wildtype Kras / hSOS1) was under 500 nM throughout.
On to `Nc1nc2c(-c3c(Cl)cc4c(N5CC6CCC(C5)N6)nc(OCC5(CN6CC[C@H](F)C6)CC5)nc4c3F)ccc(F)c2s1` [Compound 443, 4-(4-(3,8-diazabicyclo-[3.2.1]octan-3-yl)-6-chloro-8-fluoro-2-((1-(((S)-3-fluoropyrrolidin-1-yl)meth-yl)cyclopropyl)methoxy)-quinazolin-7-yl)-7-fluoro-benzo[d]thiazol-2-amine], for which the concentration for half-maximal inhibition (IC50) (in assay [1]; at wildtype Kras / hSOS1) was under 500 nM throughout.
`Nc1ccc(-c2ccc(O)cc2-c2c(Cl)cc3c(N4CC5CCC(C4)N5)nc(OCC45CCCN4CCC5)nc3c2F)cc1` [Compound 445, 2-(4-(3,8-diazabicyclo-[3.2.1]octan-3-yl)-6-chloro-8-fluoro-2-((tetrahydro-1H-pyrrolizin-7a(5H)-yl)meth-oxy)quinazolin-7-yl)-4′-amino-[1,1′-biphenyl]-4-ol]: the half-maximal inhibitory concentration (IC50) in assay [1] is over 500 nM; on wildtype Kras / hSOS1, under 500 nM.
The corresponding values for `CN(C)CC1(COc2nc(N3CC4CCC(C3)N4)c3ccc(-c4cccc5cccc(Cl)c45)c(F)c3n2)CC1` [Compound 447, 1-(1-(((4-(3,8-diazabicyclo-[3.2.1]octan-3-yl)-7-(8-chloronaphthalen-1-yl)-8-fluoroquinazolin-2-yl)oxy)-methyl)cyclopropyl)-N,N-dimethylmethanamine] are over 500 nM and under 500 nM.
The corresponding values for `CO[C@@H]1CN(C)C[C@H]1Oc1nc(N2CC3CCC(C2)N3)c2cc(Cl)c(-c3ccc(F)c4sc(N)nc34)c(F)c2n1` [Compound 448, 4-(4-(3,8-diazabicyclo-[3.2.1]-octan-3-yl)-6-chloro-8-fluoro-2-(((3R,4R)-4-methoxy-1-methylpyrrolidin-3-yl)oxy)quinazolin-7-yl)-7-fluorobenzo[d]thiazol-2-amine] are under 500 nM and under 500 nM.
In the case of `Nc1ccc(-c2ccccc2-c2c(Cl)cc3c(N4CCCCCC4)nc(OCC45CCCN4CCC5)nc3c2F)cc1` [Compound 450, 2′-(4-(azepan-1-yl)-6-chloro-8-fluoro-2-((tetrahydro-1H-pyrrolizin-7a(5H)-yl)meth-oxy)quinazolin-7-yl)-[1,1′-biphenyl]-4-amine], the IC50 was over 500 nM in assay [1] and under 500 nM on wildtype Kras / hSOS1.
The corresponding values for `N#CCCc1cc2c(N3CC4CCC(C3)N4)nc(OC[C@@]34CCCN3C[C@H](F)C4)nc2c(F)c1-c1cccc2ccc(F)c(Cl)c12` [Compound 451, 3-(4-(3,8-diazabicyclo-[3.2.1]octan-3-yl)-7-(8-chloro-7-fluoronaphthalen-1-yl)-8-fluoro-2-(((2R,7aS)-2-fluorotetrahydro-1H-pyrrolizin-7a(5H)-yl)meth-oxy)quinazolin-6-yl)pro-panenitrile] are over 500 nM and under 500 nM.
Take `Nc1nc2c(-c3c(Cl)cc4c(N5CCNCC(F)(F)C5)nc(OCC5(CN6CCCC6)CC5)nc4c3F)ccc(F)c2s1` [Compound 452, 4-(6-chloro-4-(6,6-difluoro-1,4-diazepan-1-yl)-8-fluoro-2-((1-(pyrrolidin-1-ylmeth-yl)cyclopropyl)methoxy)-quinazolin-7-yl)-7-fluoro-benzo[d]thiazol-2-amine]: the IC50 (in assay [1]; at wildtype Kras / hSOS1) was under 500 nM in each case.
For `CN1CCC[C@H]1COc1nc(N2CCCC(C3CC3)CC2)c2cc(Cl)c(-c3cccc4sc(N)nc34)c(F)c2n1` (stereo partly drawn) [Compound 453, 4-(6-chloro-4-(4-cycloprop-propylazepan-1-yl)-8-fluoro-2-(((S)-1-methylpyrrolidin-2-yl)methoxy)quinazolin-7-yl)benzo[d]thiazol-2-amine], the IC50 in assay [1] is over 500 nM; at wildtype Kras / hSOS1, under 500 nM.
For `Nc1nc2c(-c3c(Cl)cc4c(N5CC6CCC(C5)O6)nc(OC[C@@]56CCCN5C[C@H](F)C6)nc4c3F)ccc(F)c2s1` [Compound 454, 4-(4-(8-oxa-3-azabicyclo-[3.2.1]octan-3-yl)-6-chloro-8-fluoro-2-(((2R,7aS)-2-fluorotetrahydro-1H-pyrrolizin-7a(5H)-yl)meth-oxy)quinazolin-7-yl)-7-fluorobenzo[d]thiazol-2-amine], in that order: under 500 nM and under 500 nM.
For `CN1CCC[C@H]1COc1nc(N2CCCCC(C(N)=O)C2)c2cc(Cl)c(-c3cccc4sc(N)nc34)c(F)c2n1` (stereo partly drawn) [Compound 455, 1-(7-(2-aminobenzo[d]-thiazol-4-yl)-6-chloro-8-fluoro-2-(((S)-1-methylpyr-rolidin-2-yl)methoxy)quin-zolin-4-yl)azepane-3-carboxamide], in that order: under 500 nM and under 500 nM.
For the compound `Nc1nc2c(-c3c(Cl)cc4c(N5CC6CCC(C5)N6)nc(OCCCN5CCCC5)nc4c3F)ccc(F)c2s1` [Compound 457, 4-(4-(3,8-diazabicyclo-[3.2.1]octan-3-yl)-6-chloro-8-fluoro-2-(3-(pyrrolidin-1-yl)propoxy)quinazolin-7-yl)-7-fluorobenzo[d]thiazol-2-amine], the IC50 in assay [1] was over 500 nM; at wildtype Kras / hSOS1, under 500 nM.
For `Nc1ccc(C2CC2)c(-c2ccc3c(N4CC5CCC(C4)N5)nc(OC[C@@]45CCCN4C[C@H](F)C5)nc3c2F)n1` [Compound 458, 6-(4-(3,8-diazabicyclo-[3.2.1]octan-3-yl)-8-fluoro-2-(((2R,7aS)-2-fluorotetra-hydro-1H-pyrrolizin-7a(5H)-yl)methoxy)quinazolin-7-yl)-5-cyclopropylpyridin-2-amine], in that order: over 500 nM and under 500 nM.
For `CN1CCC[C@H]1COc1nc(N2CCCC(F)C(F)(F)C2)c2cc(Cl)c(-c3cccc4sc(N)nc34)c(F)c2n1` (stereo partly drawn) [Compound 459, 4-(6-chloro-8-fluoro-2-(((S)-1-methylpyrrolidin-2-yl)-methoxy)-4-(3,3,4-trifluoro-azepan-1-yl)quinazolin-7-yl)benzo[d]thiazol-2-amine], in that order: under 500 nM and under 500 nM.
For the compound `CC(C)CN1CCCN(c2nc(OCC34CCCN3CCC4)nc3c(F)c(-c4ccc(F)c5sc(N)nc45)c(Cl)cc23)CC1` [Compound 460, 4-(6-chloro-8-fluoro-4-(4-isobutyl-1,4-diazepan-1-yl)-2-((tetrahydro-1H-pyrrolizin-7a(5H)-yl)methoxy)quin-azolin-7-yl)-7-fluorobenzo-[d]thiazol-2-amine-], the IC50 (in assay [1]; on wildtype Kras / hSOS1) was under 500 nM throughout.
As to `Cc1ncc(Oc2nc(N3CCCCCC3)c3cc(Cl)c(-c4cccc5sc(N)nc45)c(F)c3n2)cn1` [Compound 461, 4-(4-(azepan-1-yl)-6-chloro-8-fluoro-2-((2-methylpyrim-idin-5-yl)oxy)quinazolin-7-yl)benzo[d]thiazol-2-amine], the half-inhibitory concentration (IC50) in assay [1] is over 500 nM; at wildtype Kras / hSOS1, under 500 nM.
Regarding `Cc1ccc2oc(N)nc2c1-c1c(Cl)cc2c(N3CCNCC(F)(F)C3)nc(OC[C@@H]3CCCN3C)nc2c1F` [Compound 462, 4-(6-chloro-4-(6,6-difluoro-1,4-diazepan-1-yl)-8-fluoro-2-(((S)-1-methylpyrrolidin-2-yl)methoxy)quinazolin-7-yl)-5-methylbenzo[d]oxazol-2-amine], the IC50 (in assay [1]; at wildtype Kras / hSOS1) was under 500 nM each time.
On to `Cc1ccc2oc(N)nc2c1-c1c(Cl)cc2c(N3CCNCC(F)(F)C3)nc(OC[C@@]34CCCN3C[C@H](F)C4)nc2c1F` [Compound 463, 4-(6-chloro-4-(6,6-difluoro-1,4-diazepan-1-yl)-8-fluoro-2-(((2R,7aS)-2-fluorotetra-hydro-1H-pyrrolizin-7a(5H)-yl)methoxy)quinazolin-7-yl)-5-methylbenzo[d]oxazol-2-amine], for which the IC50 (in assay [1]; at wildtype Kras / hSOS1) was under 500 nM each time.
With `N#CCCc1cc2c(N3CC4CCC(C3)N4)nc(OC[C@@]34CCCN3C[C@H](F)C4)nc2c(F)c1-c1ccc(F)c2sc(N)c(C#N)c12` [Compound 464, 4-(4-(3,8-diazabicyclo-[3.2.1]octan-3-yl)-6-(2-cyanoethyl)-8-fluoro-2-(((2R,7aS)-2-fluorotetra-hydro-1H-pyrrolizin-7a(5H)-yl)methoxy)quin-azolin-7-yl)-2-amino-7-fluorobenzo[b]thiophene-3-carbonitrile], the IC50 (in assay [1]; at wildtype Kras / hSOS1) was under 500 nM throughout.

(Values after patent US20240254129A1, “HETEROCYCLIC COMPOUNDS AND USES THEREOF” (Kumquat Biosciences Inc., priority 2021, published 2024).)
